SMILES strings stand for the structures. pEC50, pIC50: −log10 of the molar value.

The target of one experiment is PIM1 (Homo sapiens, UniProt P11309). In words: Pim 1 AlphaScreen assay (high ATP). In kind it is biochemical. The settings on record: read-out: Pim1 IC50. Here is the method: (§1) Pim1, Pim2, Pim3 AlphaScreen Assay Pim 1, Pim 2 & Pim 3 AlphaScreen assays using high ATP (11-125×ATP Km) were used to determine the biochemical activity of the inhibitors. The activity of Pim 1, Pim 2, & Pim 3 is measured using a homogeneous bead based system quantifying the amount of phosphorylated peptide substrate resulting from kinase-catalyzed phosphoryl transfer to a peptide substrate. Compounds to be tested are dissolved in 100% DMSO and directly distributed to a white 384-well plate at […] per well. To start the reaction, 5 μl of 100 nM Bad peptide (Biotin-AGAGRSRHSSYPAGT —OH) and ATP (concentrations described below) in assay buffer (50 mM Hepes, pH=7.5, 5 mM MgCl2, 0.05% BSA, 0.01% Tween-20, 1 mM DTT) is added to each well. This is followed by the addition of 5 μl/well of Pim 1, Pim 2 or Pim 3 kinase in assay buffer (concentrations described below). Final assay concentrations (described below) are in 2.5% DMSO. The reactions are performed for ˜2 hours, then stopped by the addition of 10 μl of 0.75 μg/ml anti-phospho Ser/Thr antibody (Cell Signaling), 10 μg/ml Protein A AlphaScreen beads (Perkin Elmer), and 10 μg/ml streptavidin coated AlphaScreen beads in stop/detection buffer (50 mM EDTA, 95 mM Tris, pH=7.5, 0.01% Tween-20). The stopped reactions are incubated overnight in the dark. The phosphorylated peptide is detected via an […] initiated chemiluminescence/fluorescence cascade using the Envision plate reader (Perkin Elmer).
(§2) IC50, the half maximal inhibitory concentration, represents the concentration of a test compound that is required for 50% inhibition of its target in vitro under the described assay conditions.

The next experiment has as its target PIM2 (Homo sapiens, UniProt Q9P1W9). In words: Pim 2 AlphaScreen assay (high ATP). Format: biochemical. To be noted: read-out: Pim2 IC50. On the procedure: as §1, §2
A further experiment has as its target PIM3 (Homo sapiens, UniProt Q86V86). Put plainly: Pim 3 AlphaScreen assay (high ATP). In kind it is biochemical. The settings on record: read-out: Pim3 IC50. On the procedure: as §1, §2
Another experiment deals with GSK3β (Homo sapiens, UniProt P49841). In words: GSK3β ATP depletion assay. In kind it is biochemical. The settings on record: ATP depletion assay; read-out: GSK3b IC50. The procedure, abridged:
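Human GSK3β (5 nM) preincubated 15 min with 10 μM biotinylated phospho-CREB peptide in pH 7.5 Tris buffer (15 mM MgCl2, 1 mM DTT, 0.1% BSA, 2.5% DMSO). Reaction started with 2 μM ATP and run to about 50% ATP depletion. Remaining ATP measured by KinaseGlo luminescence.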

Experiment [1] has as its system KMS11 (human myeloma cell line). In words: Cell proliferation assay (CellTiter-Glo), KMS11. Format: cell-based. The settings on record: Homo sapiens, KMS-11; KMS11 cells, cell proliferation; read-out: KMS11-Luc EC50. In short, it runs like this: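 KMS11 cells in IMDM with 10% FBS and sodium pyruvate, seeded at 2000 cells/well on assay day. Compound added at 2× to equal volume of cells, incubated 3 days at 37° C. Viability read by CellTiter-Glo luminescence; EC50 derived.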

PIM1, sequence (P11309 whole entry): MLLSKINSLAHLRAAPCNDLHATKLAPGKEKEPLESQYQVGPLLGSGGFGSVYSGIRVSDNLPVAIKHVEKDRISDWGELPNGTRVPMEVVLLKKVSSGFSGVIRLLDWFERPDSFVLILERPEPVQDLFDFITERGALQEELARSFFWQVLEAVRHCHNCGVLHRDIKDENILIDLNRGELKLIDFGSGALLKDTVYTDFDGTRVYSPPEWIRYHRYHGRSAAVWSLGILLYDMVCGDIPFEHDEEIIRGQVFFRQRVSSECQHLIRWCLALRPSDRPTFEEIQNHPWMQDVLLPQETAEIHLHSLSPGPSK
GSK3β, sequence (P49841 whole entry, species assumed): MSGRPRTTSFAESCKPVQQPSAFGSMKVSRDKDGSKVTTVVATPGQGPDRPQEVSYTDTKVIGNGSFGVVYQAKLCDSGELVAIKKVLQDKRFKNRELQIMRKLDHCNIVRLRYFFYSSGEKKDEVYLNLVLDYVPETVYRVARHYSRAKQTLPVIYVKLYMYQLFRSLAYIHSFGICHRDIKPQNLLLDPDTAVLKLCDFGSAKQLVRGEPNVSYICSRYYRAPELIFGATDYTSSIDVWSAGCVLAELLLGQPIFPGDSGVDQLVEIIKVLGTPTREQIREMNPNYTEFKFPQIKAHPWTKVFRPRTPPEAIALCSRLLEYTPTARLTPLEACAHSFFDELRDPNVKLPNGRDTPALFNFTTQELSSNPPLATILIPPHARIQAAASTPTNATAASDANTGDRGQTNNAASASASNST
PIM2, sequence (Q9P1W9 whole entry): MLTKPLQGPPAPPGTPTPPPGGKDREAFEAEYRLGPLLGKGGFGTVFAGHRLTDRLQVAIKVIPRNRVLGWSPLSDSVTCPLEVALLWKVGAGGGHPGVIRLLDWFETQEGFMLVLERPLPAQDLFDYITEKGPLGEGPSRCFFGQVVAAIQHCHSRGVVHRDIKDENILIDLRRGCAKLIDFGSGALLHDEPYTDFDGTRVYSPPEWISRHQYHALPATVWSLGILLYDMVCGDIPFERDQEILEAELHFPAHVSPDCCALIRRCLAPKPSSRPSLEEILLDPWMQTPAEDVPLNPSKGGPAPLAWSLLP

Consider `CC(C)C1OC(c2ccncc2NC(=O)c2nc(-c3c(F)cccc3F)ncc2N)C[C@H](N)[C@H]1O` (stereo in doubt) [Example 273, 5-amino-N-(4-((2S,4S,5R,6R)-4-amino-5-hydroxy-6-isopropyltetrahydro-2H-pyran-2-yl)pyridin-3-yl)-2-(2,6-difluorophenyl)pyrimidine-4-carboxamide], for which the pIC50 on PIM1 was 7.64; at PIM2, 6.18; on PIM3, 6.29; at GSK3β it was 4.79.
For `CC(C)C1OC(c2ccncc2NC(=O)c2ccc(F)c(-c3c(F)cccc3F)n2)C[C@H](N)[C@H]1O` (stereo in doubt) [Example 274, N-(4-((2S,4S,5R,6R)-4-amino-5-hydroxy-6-isopropyltetrahydro-2H-pyran-2-yl)pyridin-3-yl)-6-(2,6-difluorophenyl)-5-fluoropicolinamide], in that order: 8.33, 6.52, 7.02 and 4.97.
Turning to `CC[C@H]1O[C@@H](c2ccncc2NC(=O)c2ccc(F)c(-c3c(F)cccc3F)n2)C[C@@H](N)[C@]1(C)O` (stereo in doubt) [Example 275, N-(4-((2R,4R,5S,6R)-4-amino-6-ethyl-5-hydroxy-5-methyltetrahydro-2H-pyran-2-yl)pyridin-3-yl)-6-(2,6-difluorophenyl)-5-fluoropicolinamide], the pIC50 on PIM1 was 8.58; on PIM2, 6.63; at PIM3, 7.28; at GSK3β it was 4.78.
For `CC[C@@H]1O[C@H](c2ccncc2NC(=O)c2ccc(F)c(-c3c(F)cccc3F)n2)C[C@H](N)[C@@]1(C)O` (stereo in doubt) [Example 276, N-(4-((2S,4S,5R,6S)-4-amino-6-ethyl-5-hydroxy-5-methyltetrahydro-2H-pyran-2-yl)pyridin-3-yl)-6-(2,6-difluorophenyl)-5-fluoropicolinamide], in that order: 9.33, 7.76, 8.34 and 4.68.
On to `Nc1cc(F)c(-c2c(F)cccc2F)nc1C(=O)Nc1cnccc1[C@H]1C[C@@H](N)[C@@]2(O)CCC[C@H]2O1` [Example 216, 3-amino-N-(4-((2R,4R,4aS,7aR)-4-amino-4a-hydroxyoctahydrocyclopenta[b]pyran-2-yl)pyridin-3-yl)-6-(2,6-difluorophenyl)-5-fluoropicolinamide], for which the pIC50 at PIM1 is 9.85; at PIM3, 8.77; on GSK3β it was 6.02. The negative-log EC50 (pEC50) in experiment [1] is 6.28.
Take `C[C@H]1O[C@@H](c2ccncc2NC(=O)c2csc(-c3c(F)cccc3F)n2)C[C@@H](N)[C@]1(C)O` [Example 221, N-(4-((2R,4R,5S,6R)-4-amino-5-hydroxy-5,6-dimethyltetrahydro-2H-pyran-2-yl)pyridin-3-yl)-2-(2,6-difluorophenyl)thiazole-4-carboxamide]: the values for the pIC50 on PIM1, on PIM3 and at GSK3β were 9.19, 7.73 and 7.13, respectively. For the same compound, the pEC50 in experiment [1] was 5.11.
For `C[C@@H]1O[C@H](c2ccncc2NC(=O)c2csc(-c3c(F)cccc3F)n2)C[C@H](N)[C@@]1(C)O` [Example 222, N-(4-((2S,4S,5R,6S)-4-amino-5-hydroxy-5,6-dimethyltetrahydro-2H-pyran-2-yl)pyridin-3-yl)-2-(2,6-difluorophenyl)thiazole-4-carboxamide], in that order: 7.99, 6.72, 5.51 and under 5.00.
For `N[C@H]1C[C@@H](c2ccncc2NC(=O)c2ccc(F)c(-c3c(F)cccc3F)n2)O[C@H]2CCC[C@H]21` [Example 223, N-(4-((2S,4S,4aS,7aS)-4-aminooctahydrocyclopenta[b]pyran-2-yl)pyridin-3-yl)-6-(2,6-difluorophenyl)-5-fluoropicolinamide], the pIC50 at PIM1 was 8.34; at PIM3, 6.70; on GSK3β, 5.01. Moreover, in experiment [1], the pEC50 was 5.36.
For `COc1cc(NC(=O)c2ccc(F)c(-c3c(F)cccc3F)n2)c([C@H]2C[C@@H](O)[C@H](O)[C@@H](CO)O2)cn1` [Example 225, 6-(2,6-difluorophenyl)-N-(5-((2R,4R,5S,6R)-4,5-dihydroxy-6-(hydroxymethyl)tetrahydro-2H-pyran-2-yl)-2-methoxypyridin-4-yl)-5-fluoropicolinamide], in that order: 4.84, under 4.60, under 4.60 and under 5.00.
For `O=C(Nc1cc(=O)[nH]cc1[C@H]1C[C@@H](O)[C@H](O)[C@@H](CO)O1)c1ccc(F)c(-c2c(F)cccc2F)n1` [Example 226, 6-(2,6-difluorophenyl)-N-(5-((2R,4R,5S,6R)-4,5-dihydroxy-6-(hydroxymethyl)tetrahydro-2H-pyran-2-yl)-2-oxo-1,2-dihydropyridin-4-yl)-5-fluoropicolinamide], in that order: 5.84, 4.63, 4.97 and under 5.00.
On to `N[C@@H]1C[C@H](c2ccncc2NC(=O)c2csc(-c3c(F)cccc3F)n2)O[C@@H]2CCC[C@H]12` [Example 231, N-(4-((2R,4R,4aR,7aR)-4-aminooctahydrocyclopenta[b]pyran-2-yl)pyridin-3-yl)-2-(2,6-difluorophenyl)thiazole-4-carboxamide], for which the pIC50 on PIM1 is 9.62; at PIM3, 7.84; on GSK3β it was 7.27. In addition, the pEC50 in experiment [1] was 5.24.
For the compound `N[C@@H]1C[C@H](c2ccncc2NC(=O)c2ccc(F)c(-c3c(F)cccc3F)n2)O[C@H](C2CC2)[C@H]1O` [Example 235, N-(4-((2R,4R,5S,6R)-4-amino-6-cyclopropyl-5-hydroxytetrahydro-2H-pyran-2-yl)pyridin-3-yl)-6-(2,6-difluorophenyl)-5-fluoropicolinamide], the pIC50 on PIM1 is 9.46; on PIM2 it was 8.00; on PIM3, 8.12; at GSK3β, 5.13.
With `C[C@H]1O[C@@H](c2ccncc2NC(=O)c2ccc(F)c(-c3c(F)cc(S(C)(=O)=O)cc3F)n2)C[C@@H](N)[C@]1(C)O` [Example 285, N-(4-((2R,4R,5S,6R)-4-amino-5-hydroxy-5,6-dimethyltetrahydro-2H-pyran-2-yl)pyridin-3-yl)-6-(2,6-difluoro-4-(methylsulfonyl)phenyl)-5-fluoropicolinamide], the figures for the negative logarithm of the IC50 (pIC50) at PIM2 and on GSK3β were 7.35 and 5.89, respectively. The pEC50 in experiment [1] is 5.93.
For `CC1(C)C[C@H](N)C[C@@H](c2ccncc2NC(=O)c2ccc(F)c(-c3c(F)cccc3F)n2)O1` [Example 299, N-(4-((2S,4R)-4-amino-6,6-dimethyltetrahydro-2H-pyran-2-yl)pyridin-3-yl)-6-(2,6-difluorophenyl)-5-fluoropicolinamide], in that order: 8.19, 6.65 and 6.85.
For `CC(C)[C@@H]1C[C@H](N)C[C@H](c2ccncc2NC(=O)c2ccc(F)c(-c3c(F)cccc3F)n2)O1` [Example 300, N-(4-((2R,4S,6S)-4-amino-6-isopropyltetrahydro-2H-pyran-2-yl)pyridin-3-yl)-6-(2,6-difluorophenyl)-5-fluoropicolinamide], in that order: 7.94, 5.48 and 6.16.
As to `CC(C)[C@@H]1C[C@H](N)C[C@H](c2ccncc2NC(=O)c2ccc(F)c(-c3c(F)cc(S(C)(=O)=O)cc3F)n2)O1` [Example 302, N-(4-((2R,4S,6S)-4-amino-6-isopropyltetrahydro-2H-pyran-2-yl)pyridin-3-yl)-6-(2,6-difluoro-4-(methylsulfonyl)phenyl)-5-fluoropicolinamide], the pIC50 at PIM2 was 7.15; at GSK3β it was 5.80. Also, in experiment [1], the pEC50 is 5.79.
